In patent US9394233B2, “ROS-activated compounds as selective anti-cancer therapeutics” (University of Cincinnati, priority 2012, dated 2016):

How the values were obtained:
NCI-60 cell panel = assay: NCI-60 cell panel, Sulforhodamine B growth inhibition; format: cell-based
Experimental: (§1) Compounds 25 and 9 were evaluated for effects on the viability of the cell lines in the NCI-60 cell panel. […] Data is reported as growth inhibition GI50, rather than IC50, to reflect the change in cell counts relative to the starting number of cells.

[1] = tested on: human CD34+ blood stem/progenitor cells; assay: Cytotoxicity, MTT assay on CD34+ blood stem/progenitor cells; format: cell-based; settings: Homo sapiens, normal blood stem cells, read-out: IC50 against CD34+ blood stem/progenitor cells
Excerpt: (§2) To assess the anti-cancer activity against AML, transformed cells were compared to closely related, non-transformed counterparts. In the case of AML, the generally accepted non-transformed cell of origin is the human CD34+ blood stem/progenitor cell. Assessing potency against normal blood stem cells is important since, without selective cytotoxicity, an agent will yield reduced efficacy and therapeutic potential. […] Therefore, a comparison of current agents and the ROS-activated compounds disclosed herein was carried out. (FIG. 3). Cytotoxicity was measured via MTT assay on CD34+ blood stem/progenitor cells (grey lines) and on the MA9.3 AML cell line (black lines), which was derived from the transformation of human CD34+ cells by introduction of the leukemia oncogene MLL-AF9.

MOLT-4 = assay: NCI-60 Sulforhodamine B growth inhibition, MOLT-4; format: cell-based; settings: Homo sapiens; MOLT-4, ALL model line
Experimental: as §1
(§3) Growth inhibition pattern induced by 25 and 9 based on the type of cancer was also analyzed. […] The majority of leukemia and renal cancer cell lines were above the median, indicating enhanced sensitivity to ROS-activating compounds. The current results further substantiate renal carcinoma as a potential target.

ACHN = assay: Sulforhodamine B total protein content assay, ACHN; format: cell-based; settings: Homo sapiens; ACHN renal cancer cells
Experimental: (§4) The sensitivity of renal cancer cells to treatment with compound 25 was investigated. Compound 25 was evaluated for effects on viability using a sulforhodamine B total protein content assay at the NCI Developmental Therapeutics Program. The method uses total protein content and was developed by Monks et al., Feasibility of a high-flux anticancer drug screen using a diverse panel of cultured human tumor cell lines, J. Natl. Cancer Inst. 83:757-66 (1991). Briefly, cells are treated with compound 25 and then fixed to the plate surface. The number of cells is proportional to the relative amount of protein as measured by sulforhodamine B. Seven renal cancer cell lines were examined: 786-0, A498, ACHN, CAKI-1, RXF 393, SN12C, and UO-31. Data at the NCI was then fit to sigmoid and the IC50 and fitting error determined

CAKI-1 = assay: Sulforhodamine B total protein content assay, CAKI-1; format: cell-based; settings: Homo sapiens; CAKI-1 renal cancer cells
Experimental: as §4

RPMI-8226 = assay: NCI-60 Sulforhodamine B growth inhibition, RPMI-8226; format: cell-based; settings: Homo sapiens; RPMI-8226, plasmacytoma and myeloma cell line
Experimental: as §1, §3

HeLa cells = assay: HeLa cell viability, MTT assay; format: cell-based; settings: Homo sapiens, 50% reduction in percent of viable HeLa cells, read-out: IC50 against HeLa Cells
Experimental: Table 1 sets forth ROS-Activated compounds of the present invention, together with their IC50 values corresponding to a 50% reduction in the percent of viable HeLa cells in vitro as measured via MTT assay.
All synthesized compounds were purified to greater than 98% purity prior to cell testing. HeLa cell viability assays were performed using an MTT assay.
The general structure of the ROS-activated compounds disclosed herein was probed to determine how positions in the structure alter potency in aqueous media. Compounds were screened against HeLa cells to determine IC50 values. Cell viability was monitored by an MTT dye that forms a purple formazan product in viable cells that are undergoing metabolism. […] Errors reported are between two separate experiments; independent curve-fitting had r greater than 0.95).

MA9.3 AML cells = assay: AML cytotoxicity, MTT assay on MA9.3 AML cell line; format: cell-based, human; settings: Homo sapiens, read-out: IC50 against MA9.3 AML cells
Excerpt: as §2

SR-91 = assay: NCI-60 Sulforhodamine B growth inhibition, SR-91; format: cell-based; settings: SR-91, acute lymphoblastic leukemia model
Experimental: as §1, §3

renal cancer cells = assay: Sulforhodamine B total protein content assay, renal cancer cell lines (NCI); format: cell-based; settings: Homo sapiens; median over seven renal cancer cell lines
Experimental: as §4

SN12C = assay: Sulforhodamine B total protein content assay, SN12C; format: cell-based; settings: Homo sapiens; SN12C renal cancer cells
Experimental: as §4

Q: Which “range of GI50 values” (NCI-60 cell panel; distribution of GI50 over NCI-60 panel) does the source give for `Oc1ccc(OCCN(CCOc2ccc(O)cc2)c2ccccc2)cc1` [Compound 25, 4,4′-(2,2′-(phenylazanediyl)bis(ethane-2,1-diyl)bis(oxy))diphenol] here?
A: 55 fold

Q: What about the GI50 (NCI-60 cell panel; median over NCI-60 panel, Sulforhodamine B) of the same molecule?
A: 3900 nM

Q: And the IC50 [1]?
A: 16000 ± 1000 nM

Q: And the GI50 (MOLT-4)?
A: 1300 nM

Q: And the IC50 (ACHN)?
A: 360 ± 90 nM

Q: What about the IC50 (CAKI-1) of the same molecule?
A: 370 ± 40 nM

Q: And the GI50 (RPMI-8226)?
A: 3800 nM

Q: And the IC50 (HeLa cells)?
A: 11000 nM

Q: And the IC50 (MA9.3 AML cells)?
A: 3000 ± 200 nM

Q: What about the GI50 (SR-91) of the same molecule?
A: 470 nM

Q: What about the IC50 (renal cancer cells) of the same molecule?
A: 1800 nM

Q: And the IC50 (SN12C)?
A: 21000 ± 1200 nM
